Values of other authors as cited in patent US20040009220A1, “Rate-controlled beta blockers and process for forming same” (priority 2001, published 2004).

Experiments:
[1] = in man

| SMILES | plasma half life [1] | solubility in water |
| --- | --- | --- |
| COCCc1ccc(OCC(O)CNC(C)C)cc1 (centres unmarked) [Metroprolol] | three to seven | – |
| COCCc1ccc(OCC(O)CNC(C)C)cc1 (centres unmarked) [metoprolol succinate] | – | freely soluble in water |
